Key:
ErbB2 WT = ErbB2 WT (Homo sapiens (Human), UniProt P04626); assay: ErbB Enzyme Assay (HTRF KinEASE-TK), Assay 2; assay type: biochemical
EGFR = EGFR (Homo sapiens (Human), UniProt P00533); assay: ErbB Enzyme Assay (HTRF KinEASE-TK), Assay 3; assay type: biochemical
[1] = target: ErbB2 with Exon 20 YVMA insertion (HER2-YVMA) (Homo sapiens (Human), UniProt P04626, INS775YVMA); assay: Cellular Phosphorylation Assay, Assay 4 (constitutive ErbB2 phosphorylation, NIH 3T3 cells); assay type: cell-based
Chain of ErbB2 with Exon 20 YVMA insertion (HER2-YVMA) (P04626 other isoform, or with tags, fused parts or gaps ins YVMA behind 775): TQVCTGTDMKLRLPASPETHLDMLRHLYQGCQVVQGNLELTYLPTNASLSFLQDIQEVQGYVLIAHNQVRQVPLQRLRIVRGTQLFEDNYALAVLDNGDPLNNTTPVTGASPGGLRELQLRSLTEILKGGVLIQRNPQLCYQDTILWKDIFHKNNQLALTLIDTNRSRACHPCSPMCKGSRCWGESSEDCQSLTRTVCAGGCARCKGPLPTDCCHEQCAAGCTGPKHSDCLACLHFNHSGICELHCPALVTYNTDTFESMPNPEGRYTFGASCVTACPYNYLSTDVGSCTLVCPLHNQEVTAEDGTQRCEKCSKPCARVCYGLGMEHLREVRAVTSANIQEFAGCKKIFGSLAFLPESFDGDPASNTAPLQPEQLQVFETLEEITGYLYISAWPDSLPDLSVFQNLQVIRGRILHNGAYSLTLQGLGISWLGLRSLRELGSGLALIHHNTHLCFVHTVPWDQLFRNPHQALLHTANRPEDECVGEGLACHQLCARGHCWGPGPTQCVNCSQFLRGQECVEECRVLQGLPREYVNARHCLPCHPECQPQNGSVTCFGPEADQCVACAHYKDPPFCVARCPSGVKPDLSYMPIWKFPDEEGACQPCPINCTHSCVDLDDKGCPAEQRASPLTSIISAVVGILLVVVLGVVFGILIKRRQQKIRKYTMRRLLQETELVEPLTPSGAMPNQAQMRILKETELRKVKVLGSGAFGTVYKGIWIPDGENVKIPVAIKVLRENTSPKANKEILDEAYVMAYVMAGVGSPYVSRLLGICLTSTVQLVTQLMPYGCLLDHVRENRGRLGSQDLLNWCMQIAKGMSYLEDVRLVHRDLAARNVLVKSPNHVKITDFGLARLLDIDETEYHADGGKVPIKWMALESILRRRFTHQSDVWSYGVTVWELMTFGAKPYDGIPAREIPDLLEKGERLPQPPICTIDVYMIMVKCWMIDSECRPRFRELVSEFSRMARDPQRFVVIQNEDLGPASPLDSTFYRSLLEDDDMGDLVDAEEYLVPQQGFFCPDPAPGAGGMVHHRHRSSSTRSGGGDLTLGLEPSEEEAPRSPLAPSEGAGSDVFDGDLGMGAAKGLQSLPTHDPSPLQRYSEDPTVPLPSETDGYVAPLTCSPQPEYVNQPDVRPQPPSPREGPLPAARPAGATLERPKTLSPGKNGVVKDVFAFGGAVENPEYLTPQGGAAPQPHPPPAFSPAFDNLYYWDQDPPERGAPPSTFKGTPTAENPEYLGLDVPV

EGFR wild type (EGFR WT) = EGFR wild type (EGFR WT) (Homo sapiens (Human), UniProt P00533); assay: Cellular Phosphorylation Assay, Assay 5 (EGF-stimulated EGFR phosphorylation, NIH 3T3 cells); assay type: cell-based
Chain of EGFR wild type (EGFR WT) (P00533 25-1210): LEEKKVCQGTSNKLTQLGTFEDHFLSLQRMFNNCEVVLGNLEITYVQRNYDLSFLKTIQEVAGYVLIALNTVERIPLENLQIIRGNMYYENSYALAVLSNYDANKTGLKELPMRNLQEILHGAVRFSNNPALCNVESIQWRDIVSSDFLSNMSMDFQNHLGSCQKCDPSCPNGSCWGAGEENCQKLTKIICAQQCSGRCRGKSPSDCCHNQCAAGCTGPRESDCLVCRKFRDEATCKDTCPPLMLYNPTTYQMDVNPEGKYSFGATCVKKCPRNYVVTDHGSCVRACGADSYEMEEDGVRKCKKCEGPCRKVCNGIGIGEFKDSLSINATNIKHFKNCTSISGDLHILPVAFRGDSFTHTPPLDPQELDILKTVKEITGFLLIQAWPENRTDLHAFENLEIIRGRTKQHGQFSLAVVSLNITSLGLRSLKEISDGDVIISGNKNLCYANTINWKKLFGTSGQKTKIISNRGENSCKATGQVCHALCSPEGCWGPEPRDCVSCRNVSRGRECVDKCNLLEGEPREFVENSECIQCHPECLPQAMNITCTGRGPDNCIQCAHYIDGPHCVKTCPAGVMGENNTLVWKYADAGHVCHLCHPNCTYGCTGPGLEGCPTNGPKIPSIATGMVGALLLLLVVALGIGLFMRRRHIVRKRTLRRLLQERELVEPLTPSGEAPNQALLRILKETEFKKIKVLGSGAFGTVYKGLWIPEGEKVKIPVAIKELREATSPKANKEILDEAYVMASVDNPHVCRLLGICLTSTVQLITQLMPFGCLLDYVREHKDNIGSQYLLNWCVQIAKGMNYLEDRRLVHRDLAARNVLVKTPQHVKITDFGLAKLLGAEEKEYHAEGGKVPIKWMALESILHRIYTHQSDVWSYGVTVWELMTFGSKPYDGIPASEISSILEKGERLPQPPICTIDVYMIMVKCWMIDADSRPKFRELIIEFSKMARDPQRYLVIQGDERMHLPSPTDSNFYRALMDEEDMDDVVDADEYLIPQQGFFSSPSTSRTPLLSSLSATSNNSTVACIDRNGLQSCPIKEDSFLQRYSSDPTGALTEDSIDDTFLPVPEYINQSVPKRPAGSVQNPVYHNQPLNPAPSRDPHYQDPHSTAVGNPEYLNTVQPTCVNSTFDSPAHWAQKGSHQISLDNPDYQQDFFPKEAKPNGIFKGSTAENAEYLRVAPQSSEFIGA

[2] = EGF-stimulated EGFR WT phosphorylation
[3] = cellular ErbB2 YVMA phosphorylation
[4] = cellular EGFR WT phosphorylation, EGF-stimulated

Chain of EGFR (P00533 25-1210): as above
Chain of ErbB2 WT (P04626 23-1255): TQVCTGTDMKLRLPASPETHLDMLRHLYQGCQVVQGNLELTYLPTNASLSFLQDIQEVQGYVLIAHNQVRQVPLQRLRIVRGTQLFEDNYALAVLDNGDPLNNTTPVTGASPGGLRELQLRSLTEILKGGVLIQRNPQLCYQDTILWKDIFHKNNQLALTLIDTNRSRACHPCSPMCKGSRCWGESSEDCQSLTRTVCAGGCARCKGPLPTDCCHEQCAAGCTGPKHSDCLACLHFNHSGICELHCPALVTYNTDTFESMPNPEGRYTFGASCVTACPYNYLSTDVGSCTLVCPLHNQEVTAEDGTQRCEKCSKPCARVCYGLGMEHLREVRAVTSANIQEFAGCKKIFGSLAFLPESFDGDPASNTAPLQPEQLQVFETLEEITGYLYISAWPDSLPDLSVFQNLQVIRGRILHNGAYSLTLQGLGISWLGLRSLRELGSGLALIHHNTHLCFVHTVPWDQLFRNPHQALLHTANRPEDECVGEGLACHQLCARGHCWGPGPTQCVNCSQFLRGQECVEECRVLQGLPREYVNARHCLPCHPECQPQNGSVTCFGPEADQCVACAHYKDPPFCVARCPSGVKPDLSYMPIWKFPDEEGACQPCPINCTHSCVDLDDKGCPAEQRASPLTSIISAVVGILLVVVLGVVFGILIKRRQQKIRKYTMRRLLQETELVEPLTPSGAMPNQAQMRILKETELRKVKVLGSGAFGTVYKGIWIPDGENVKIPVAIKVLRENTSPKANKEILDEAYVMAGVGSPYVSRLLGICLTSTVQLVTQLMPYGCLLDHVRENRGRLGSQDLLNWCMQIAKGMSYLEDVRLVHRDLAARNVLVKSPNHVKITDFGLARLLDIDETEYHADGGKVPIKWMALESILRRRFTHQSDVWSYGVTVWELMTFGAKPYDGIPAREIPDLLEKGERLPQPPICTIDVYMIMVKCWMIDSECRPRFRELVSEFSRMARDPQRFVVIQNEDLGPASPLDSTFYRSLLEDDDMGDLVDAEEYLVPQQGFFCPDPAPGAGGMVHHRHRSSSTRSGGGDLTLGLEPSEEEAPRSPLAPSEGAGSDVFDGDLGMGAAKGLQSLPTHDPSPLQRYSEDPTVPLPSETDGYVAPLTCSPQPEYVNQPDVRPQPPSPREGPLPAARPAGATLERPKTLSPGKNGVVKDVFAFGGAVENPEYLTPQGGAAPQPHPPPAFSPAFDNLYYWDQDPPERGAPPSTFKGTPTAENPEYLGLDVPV

SMILES	IC50 (ErbB2 WT; ErbB2 WT enzyme)	IC50 (EGFR; EGFR enzyme)	IC50 ([1]; ErbB2 YVMA phosphorylation)	IC50 (EGFR wild type (EGFR WT); [2])	IC50 (ErbB2 WT; ErbB2 WT enzyme assay)	IC50 (EGFR; EGFR enzyme assay)	IC50 [1, 3]	IC50 (EGFR wild type (EGFR WT); [4])
C=CC(=O)N1CCC(Oc2nc3c(Nc4ccc(Oc5ccc6cn(C)nc6c5)c(Cl)c4F)ncnc3cc2OC)CC1 [Example 156, 1-(4-((4-((3-chloro-2-fluoro-4-((2-methyl-2H-indazol-6-yl)oxy)phenyl)amino)-7-methoxypyrido[3,2-d]pyrimidin-6-yl)oxy)piperidin-1-yl)prop-2-en-1-one]	20.3 nM	110 nM	19.6 nM	215 nM	–	–	–	–
C=CC(=O)N1CCC(Oc2ccc3ncnc(Nc4ccc(Oc5cnc6cn(C)nc6c5)c(C)c4)c3n2)CC1 [Example 14, 1-(4-((4-((3-methyl-4-((2-methyl-2H-pyrazolo[4,3-b]pyridin-6-yl)oxy)phenyl)amino)pyrido[3,2-d]pyrimidin-6-yl)oxy)piperidin-1-yl)prop-2-en-1-one]	432 nM	≥ 10000 nM	48.4 nM	≥ 5000 nM	–	–	–	–
C=CC(=O)N1C[C@H]2CC[C@@H](C1)[C@@H]2c1ccc2ncnc(Nc3ccc(Oc4ccn5ncnc5c4)c(C)c3F)c2n1 [Example 223, 1-((1R,5S,8r)-8-(4-((4-([1,2,4]triazolo[1,5-a]pyridin-7-yloxy)-2-fluoro-3-methylphenyl)amino)pyrido[3,2-d]pyrimidin-6-yl)-3-azabicyclo[3.2.1]octan-3-yl)prop-2-en-1-one]	48.9 nM	1960 nM	145 nM	≥ 5000 nM	–	–	–	–
C=CC(=O)N1CCC(Sc2ccc3ncnc(Nc4ccc(Oc5ccn6ncnc6c5)c(Cl)c4F)c3n2)CC1 [Example 62, 1-(4-((4-((4-([1,2,4]triazolo[1,5-a]pyridin-7-yloxy)-3-chloro-2-fluorophenyl)amino)pyrido[3,2-d]pyrimidin-6-yl)thio)piperidin-1-yl)prop-2-en-1-one]	15.3 nM	333 nM	28.1 nM	639 nM	–	–	–	–
C=CC(=O)N1CCN(c2ccc3ncnc(Nc4ccc(Oc5ccn6ncnc6c5)c(Cl)c4F)c3n2)C[C@H]1C(C)(C)C [Example 311]	–	–	–	–	80.3 nM	≥ 10000 nM	16.2 nM	562 nM
C=CC(=O)N1CCN(c2ccc3ncnc(Nc4ccc(Oc5ccc6c(c5)ncn6C)c(C)c4F)c3n2)CC12CC2 [Example 339]	–	–	–	–	14.1 nM	≥ 10000 nM	16.4 nM	361 nM
C=CC(=O)N1C[C@H]2C[C@@H]1[C@H](c1ccc3ncnc(Nc4ccc(Oc5ccn6ncnc6c5)c(C)c4F)c3n1)C2 [Example 372]	–	–	–	–	19 nM	1130 nM	52.7 nM	4080 nM

Next, values leading:

IC50 (ErbB2 WT; ErbB2 WT enzyme)	IC50 (EGFR; EGFR enzyme)	IC50 ([1]; ErbB2 YVMA phosphorylation)	IC50 (EGFR wild type (EGFR WT); [2])	IC50 (ErbB2 WT; ErbB2 WT enzyme assay)	IC50 (EGFR; EGFR enzyme assay)	IC50 [1, 3]	IC50 (EGFR wild type (EGFR WT); [4])	SMILES
1450 nM	≥ 10000 nM	2020 nM	≥ 5000 nM	–	–	–	–	CC#CC(=O)N1CCC12CN(c1ccc3ncnc(Nc4cc(C)c(Oc5ccn6ncnc6c5)cc4F)c3n1)C2 [Example 188, 1-(6-(4-((4-([1,2,4]triazolo[1,5-a]pyridin-7-yloxy)-2-fluoro-5-methylphenyl)amino)pyrido[3,2-d]pyrimidin-6-yl)-1,6-diazaspiro[3.3]heptan-1-yl)but-2-yn-1-one]
–	–	–	–	7 nM	108 nM	4.9 nM	68.9 nM	C=CC(=O)N1CCN(c2ccc3ncnc(Nc4ccc(Oc5ccn6ncnc6c5)c(C)c4F)c3n2)CC12CC2 [Example 338]
42.3 nM	8790 nM	18.8 nM	1510 nM	–	–	–	–	C=CC(=O)N1CCN(c2ccc3ncnc(Nc4ccc(Oc5ccn6ncnc6c5)c(C)c4F)c3n2)C[C@@H]1C1CC1 (racemic) [Example 163, rac-1-(4-(4-((4-([1,2,4]triazolo[1,5-a]pyridin-7-yloxy)-2-fluoro-3-methylphenyl)amino)pyrido[3,2-d]pyrimidin-6-yl)-2-cyclopropylpiperazin-1-yl)prop-2-en-1-one]
–	–	–	–	25.4 nM	2910 nM	11.5 nM	≥ 5000 nM	C=CC(=O)N(C)[C@H]1CCN(c2ccc3ncnc(Nc4ccc(Oc5ccn6ncnc6c5)c(C)c4F)c3n2)C1 [Example 352]

From patent publication US12447153B2, “HER2 mutation inhibitors” (Array BioPharma Inc., priority 2021, dated 2025)
